Measurements taken from PubChem BioAssay (NCI).
Several values for one entry are separate records, joined by “and”; a condition that tells them apart may be missing. Equal values may be shown once.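 1) Cells in 96-well plates. 2) Compound, 48 h, 5 concentrations. 3) Linear interpolation between surrounding doses. 4) Unreached endpoint = highest concentration. Here, GI50 denotes the concentration required for 50% inhibition of growth. TGI: concentration producing complete growth inhibition.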

Legend:
Assay in all cases: NCI anticancer screen, dose series, 48 h; in the data active = GI50 below about 0.43 µM; inactive = the rest
[1] = system: UACC-62 melanoma
[2] = system: SK-MEL-28 melanoma
[3] = system: SNB-19 CNS
[4] = system: MOLT-4 leukemia
[5] = system: NCI-H23 lung
[6] = system: SF-295 CNS
[7] = system: COLO 205 colon
[8] = system: SF-268 CNS
[9] = system: HT29 colon
[10] = system: SW-620 colon
[11] = system: UO-31 renal
[12] = system: T-47D breast
[13] = system: SK-MEL-5 melanoma
[14] = system: IGROV1 ovarian
[15] = system: HCT-116 colon
[16] = system: DU-145 prostate
[17] = system: KM12 colon
[18] = system: HOP-62 NSCLC
[19] = system: MCF7 breast
[20] = system: SR leukemia
[21] = system: SN12C renal
[22] = system: BT-549 breast
[23] = system: NCI/ADR-RES ovarian
[24] = system: MDA-MB-231 breast
[25] = system: EKVX NSCLC
[26] = system: OVCAR-5 ovarian
[27] = system: CCRF-CEM leukemia
[28] = system: SF-539 CNS
[29] = system: OVCAR-3 ovarian
[30] = system: ACHN renal
[31] = system: M14 melanoma
[32] = system: TK-10 renal
[33] = system: A549 NSCLC
[34] = system: OVCAR-4 ovarian
[35] = system: HCT-15 colon
[36] = system: SNB-75 CNS
[37] = system: 786-0 renal
[38] = system: OVCAR-8 ovarian
[39] = system: HS 578T breast
[40] = system: U251 CNS
[41] = system: MALME-3M melanoma
[42] = system: HCC-2998 colon
[43] = system: LOX IMVI melanoma
[44] = system: NCI-H460 lung
[45] = system: HL-60(TB) leukemia
[46] = system: RPMI-8226 leukemia
[47] = system: K-562 leukemia
[48] = system: SK-OV-3 ovarian
[49] = system: CAKI-1 renal
[50] = system: A498 renal
[51] = system: RXF 393 renal
[52] = system: PC-3 prostate
[53] = system: NCI-H226 lung
[54] = system: HOP-92 NSCLC
[55] = system: NCI-H522 lung
[56] = system: SK-MEL-2 melanoma
[57] = system: MDA-MB-435
[58] = system: UACC-257 melanoma

COc1ccc2c(c1)NC(=O)CN2c1nc(NC2CC2)nc2ccccc12
10.2 µM: TGI [11]
0.00677 µM: TGI [23]
inactive: GI50 [2] 0.847 µM | GI50 [41] 2.01 µM | GI50 [54] 2.66 µM
18.4 µM: TGI [40]
18.6 µM: TGI [37]
7.13 µM: TGI [12]
1.42 µM: TGI [42]
10.5 µM: TGI [18]
13.3 µM: TGI [15]
0.011 µM: TGI [29]
0.00241 µM: TGI [7]
16.2 µM: TGI [5]
14.7 µM: TGI [19]
55.5 µM: TGI [43]
14.9 µM: TGI [32]
0.00611 µM and 0.0191 µM: TGI [6]
3.11 µM: TGI [22]
16.4 µM: TGI [46]
46.9 µM: TGI [38]
25 µM: TGI [39]
active: GI50 [1] 0.000876 µM | GI50 [3] 0.00154 µM | GI50 [4] 0.00255 µM | GI50 [5] 0.00112 µM | GI50 [6] 0.00211 µM | GI50 [7] 0.000395 µM | GI50 [8] 0.00204 µM | GI50 [9] 0.000347 µM | GI50 [10] 0.000383 µM | GI50 [11] 0.031 µM | GI50 [12] 0.23 µM | GI50 [13] 0.000552 µM | GI50 [15] 0.000424 µM | GI50 [16] 0.000452 µM | GI50 [17] 0.000396 µM | GI50 [18] 0.00433 µM | GI50 [19] 0.000386 µM | GI50 [20] 0.000274 µM | GI50 [21] 0.00491 µM | GI50 [22] 0.00423 µM | GI50 [23] 0.000651 µM | GI50 [24] 0.000858 µM | GI50 [27] 0.000385 µM | GI50 [28] 0.00232 µM | GI50 [29] 0.000368 µM | GI50 [31] 0.000367 µM | GI50 [33] 0.00128 µM | GI50 [35] 0.000556 µM | GI50 [36] 0.00199 µM | GI50 [37] 0.00905 µM | GI50 [38] 0.00234 µM | GI50 [39] 0.00359 µM | GI50 [40] 0.00106 µM | GI50 [42] 0.00106 µM | GI50 [43] 0.000901 µM | GI50 [44] 0.000405 µM | GI50 [45] 0.000503 µM | GI50 [46] 0.00182 µM | GI50 [47] 0.000336 µM | GI50 [48] 0.00182 µM | GI50 [50] 0.00185 µM | GI50 [51] 0.00178 µM | GI50 [52] 0.000563 µM
6.43 µM: TGI [14]
17.5 µM: TGI [54]
0.00804 µM: TGI [28]
13.2 µM: TGI [1]
14.4 µM: TGI [8]
17.9 µM: TGI [49]
84.7 µM: TGI [41]
77.5 µM: TGI [25]
24.5 µM: TGI [3]
2.83 µM: TGI [16]
> 100 µM: TGI [2] | TGI [4] | TGI [10] | TGI [17] | TGI [21] | TGI [24] | TGI [26] | TGI [27] | TGI [30] | TGI [31] | TGI [33] | TGI [34] | TGI [35] | TGI [44] | TGI [47] | TGI [52] | TGI [53]
0.00313 µM: TGI [45]
18.7 µM: TGI [36]

c1ccc(C(NC2CCCCC2NCCNC2CCCCC2NC(c2ccccc2)(c2ccccc2)c2ccccc2)(c2ccccc2)c2ccccc2)cc1 (stereo not drawn)
71.2 µM: TGI [11]
33.9 µM: TGI [40]
53.6 µM: TGI [15]
45.3 µM: TGI [39]
39.5 µM: TGI [55]
> 100 µM: TGI [1] | TGI [2] | TGI [3] | TGI [56] | TGI [4] | TGI [5] | TGI [6] | TGI [7] | TGI [8] | TGI [9] | TGI [10] | TGI [12] | TGI [13] | TGI [14] | TGI [16] | TGI [17] | TGI [18] | TGI [20] | TGI [21] | TGI [24] | TGI [25] | TGI [26] | TGI [27] | TGI [28] | TGI [29] | TGI [30] | TGI [32] | TGI [33] | TGI [34] | TGI [35] | TGI [38] | TGI [44] | TGI [46] | TGI [58] | TGI [47] | TGI [48] | TGI [49] | TGI [52]
65.5 µM: TGI [50]
47.7 µM: TGI [43]
54.1 µM: TGI [22]
33.7 µM: TGI [54]
42.1 µM: TGI [19]
32.7 µM: TGI [57]
